In brackets after ≈: the same amount, converted by molar mass.
Experiments:
[1] = tested on: cells originated from human mouth tumour (KB-cells); test: Test on inhibition of proliferation using cells originated from human mouth tumour (KB-cells); assay type: cell-based; settings: 96 h, stationary culture at 37°C for 4 days, Trypan Blue staining, surviving cell number relative to control
Experimental: The experimental methods and the results are described below. Test on Inhibition of Proliferation Using Cells Originated
. The cells originated from human mouth tumour (KB-cells) were added to Eagle's MEM culture solution containing 10% bovine fetal serum, the number of cells in the culture solution was adjusted to 1 ×10^5 cells/ml, a solution in ethanol of compounds of the present invention was added to give a concentration of 5 µg/ml or below and the mixture was subjected to stationary culture at 37°C for 4 days. As a control, a culture solution containing 0.1% of ethanol was similarly cultured. After the culture, the cells were stained by the Trypan Blue staining method, and the surviving cell number was measured to determine the IC50 value from the degree of inhibition relative to the control.

Acute toxicity = settings: in vivo, iv; intravenously
ICR male mice = test: Test on increase of white blood cell (hematological test); assay type: in vivo; settings: 3 mg/kg i.p. once a day for 14 days, blood collected on the day following the final administration
Experimental: The experimental methods and results are described below. A solution of a compound of the present invention in ethanol was diluted with l% Tween 80 (registered Trade Mark) and the solution was intraperitoneally administered to ICR male mice of 6-7 weeks old once a day for 14 days. On the day following the final administration, the blood was collected by cardiac puncture with Anglot® (containing heparin and EDTA) as an anticoagulant. The blood was diluted with Seruento (registered Trade Mark), and the numbers of white blood cells and red blood cells were counted by a Micro Cell Counter (model CC-120).

Compound	IC50 [1] [µg/mL]	other results
CCCCC[C@H](O)/C=C/[C@H]1C(=O)C=C[C@@H]1C/C=C\CCCC(=O)NCCCCNC(=O)CCC/C=C\C[C@H]1C=CC(=O)[C@@H]1/C=C/[C@@H](O)CCCCC [Example 1(f)]	1.17 (≈ 1.62 µM)	–
CCCCC[C@H](O)/C=C/[C@H]1C(=O)C=C[C@@H]1C/C=C\CCCC(=O)NCCOC(=O)CCC/C=C\C[C@H]1C=CC(=O)[C@@H]1/C=C/[C@@H](O)CCCCC [Example 1(g)]	1.8 (≈ 2.59 µM)	–
CCCCC[C@H](O)/C=C/[C@H]1C(=O)C=C[C@@H]1C/C=C\CCCC(=O)OCCOC(=O)CCC/C=C\C[C@H]1C=CC(=O)[C@@H]1/C=C/[C@@H](O)CCCCC [Example 1(h)]	< 1	–
CCCCCC=CC=C1C(=O)C=CC1CC=CCCCC(=O)NCCNC(=O)CCCC=CCC1C=CC(=O)C1=CC=CCCCCC (stereo not drawn) [Example 4]	0.47 (≈ 0.715 µM)	–
CCCCC[C@H](O)/C=C/[C@H]1C(=O)C=C[C@@H]1C/C=C\CCCC(=O)NCCCNC(=O)CCC/C=C\C[C@H]1C=CC(=O)[C@@H]1/C=C/[C@@H](O)CCCCC [Example 1(e), N,N'-bis[(5Z,13E)-(15S)-11-oxo-15-hydroxy-prosta-5,9,13-trienoyl]trimethylenediamine]	–	LD50 (Acute toxicity): > 100 mg/kg; RBC (x10^4/mm^3) (ICR male mice; red blood cells): 793 ± 22.5 (p <0.001) x10^4/mm^3; WBC (x10^2/mm^3) (ICR male mice; white blood cells): 158 ± 17.0 (p <0.05) x10^2/mm^3
CCCCC[C@H](O)/C=C/[C@H]1C(=O)C=C[C@@H]1C/C=C\CCCC(=O)NCCNC(=O)CCC/C=C\C[C@H]1C=CC(=O)[C@@H]1/C=C/[C@@H](O)CCCCC [Example 1]	0.87 (≈ 1.26 µM)	–
CCCCC[C@H](O)/C=C/[C@H]1C(=O)C[C@H](O)[C@@H]1C/C=C\CCCC(=O)NCCCNC(=O)CCC/C=C\C[C@H]1[C@@H](O)CC(=O)[C@@H]1/C=C/[C@@H](O)CCCCC [Example 3(a)]	1.9 (≈ 2.56 µM)	–
